Values joined by “and” are separate entries in the source; they are usually repeats but may differ in a detail not shown here. Equal entries are not always repeated.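 Method: 48-hour compound exposure of cells in 96-well plates, five concentrations, linear interpolation of endpoints. GI50 marks 50% less growth. TGI marks complete inhibition of growth.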
Assays:
Test in all cases: NCI anticancer screen, dose series, 48 h
BT-549 breast = system: BT-549 breast
MDA-MB-231 breast = system: MDA-MB-231 breast
T-47D breast = system: T-47D breast
MDA-N = system: MDA-N
DMS 273 small cell lung = system: DMS 273 small cell lung
M19-MEL melanoma = system: M19-MEL melanoma
XF 498 CNS = system: XF 498 CNS
SNB-78 CNS = system: SNB-78 CNS

SMILES	GI50 (BT-549 breast)	TGI (BT-549 breast)	GI50 (MDA-MB-231 breast)	TGI (MDA-MB-231 breast)	GI50 (T-47D breast)	TGI (T-47D breast)	TGI (MDA-N)	GI50 (MDA-N)	TGI (DMS 273 small cell lung)	TGI (M19-MEL melanoma)	TGI (XF 498 CNS)	TGI (SNB-78 CNS)
O=C(Oc1ccc(O)c2c(=O)n3c(cc12)[nH]c1ccccc13)c1ccccc1	6.35 µM	32.2 µM	6.22 µM	42.1 µM	9.32 µM	47.2 µM	–	–	–	–	–	–
Cc1cc(S(=O)(=O)Nc2nc(N)nc(N3N=CCC3C)n2)c(S)cc1Cl (stereo unspecified)	–	> 10 µM	–	–	–	> 10 µM	> 10 µM	–	–	–	–	–
O=c1ccn(C2OC(CO)C(O)C2O)c(=O)[nH]1 (stereo unspecified)	–	> 1000 µM	–	> 1000 µM	> 1000 µM	> 1000 µM	> 1000 µM	> 1000 µM	–	–	–	–
CC1(C)C=CC[C@]2(C)[C@H]3CC[C@@H]4[C@H]5[C@H](C(=O)/C=C/c6cccnc6)CC[C@]5(CO)CC[C@@]4(C)[C@]3(C)CC[C@@H]12	–	–	1.27 µM	2.67 µM	–	–	–	–	–	–	–	–
CC[N+](CCCCCCCCCC[N+](CC)(c1ccccn1)c1ccccn1)(c1ccccn1)c1ccccn1	0.973 µM	88.9 µM	2.24 µM	13.8 µM	0.295 µM	1.7 µM	–	–	–	–	–	–
CN1CCN(CCSC2Cc3cc(Cl)ccc3Sc3ccccc32)CC1 (stereo unspecified)	–	–	–	–	–	–	–	–	4.28 µM	4.16 µM	9.57 µM	–
CC1=CSC2=NC(c3ccc(Cl)c(Cl)c3)=CC(c3ccc(Cl)cc3)N12 (stereo unspecified)	> 100 µM	> 100 µM	> 100 µM	> 100 µM	> 100 µM	> 100 µM	–	–	–	–	–	–
COc1cc(C2c3cc4c(cc3[C@@H](Nc3ccc(C(=O)O)cc3)C3COC(=O)[C@H]23)OCO4)cc(OC)c1O (stereo partly specified)	–	–	–	–	–	–	–	–	28.5 µM and > 17.5 µM	49.6 µM and > 17.5 µM	–	92.7 µM and 17.4 µM
CC(=O)CC1CCC(=O)CCC(=O)OC(CC(C)=O)CCC(=O)CCC(=O)O1 (stereo unspecified)	–	> 100 µM	–	> 100 µM	–	> 100 µM	> 100 µM	–	–	–	–	–
c1cnc2c(c1)-n1cccc1C1(CCSCC1)NN2	–	–	–	–	–	–	–	–	> 100 µM	> 100 µM	> 100 µM	–
CC(C)c1ccc(Cc2cnc(NC(=O)c3cc(Br)cs3)s2)cc1	3.81 µM	> 100 µM	3.09 µM	19.4 µM	4.27 µM	> 100 µM	–	–	–	–	–	–
c1ccc2c(c1)[I+]c1ccccc1-2	> 50 µM	> 50 µM	47.6 µM	> 50 µM	> 50 µM	> 50 µM	–	–	–	–	–	–
O=c1oc2ccccc2c(O)c1/C=N\c1nc(-c2ccccc2)cs1	–	–	–	54.8 µM	–	47.1 µM	16 µM	–	–	–	–	–
O=C(Nc1ccc(Cl)cc1)Nc1ccc(Cl)c(Cl)c1	–	–	2.34 µM	7.65 µM	3.05 µM	30.6 µM	–	–	–	–	–	–
Cc1cc(/C=C2\SC(=Nc3ccccc3)N(C3CCCC3)C2=O)c(C)n1-c1ccc(Cl)cc1	> 100 µM	> 100 µM	> 100 µM	> 100 µM	> 100 µM	> 100 µM	–	–	–	–	–	–
CC#CC(O)(C(=O)OC1CCCN(C)C1)C1=CC=CCC1 (stereo unspecified)	–	–	–	> 100 µM	–	> 100 µM	> 100 µM	–	–	–	–	–
Nc1c(C(=O)c2ccccc2)sc2nc(-c3cccs3)ccc12	0.332 µM	11.6 µM	1.23 µM	5.7 µM	0.335 µM	12.2 µM	–	–	–	–	–	–
Cc1nn(C(=O)c2ccccc2O)c2c1C(c1ccccc1)SC(N)=N2 (stereo unspecified)	–	> 10 µM	–	> 10 µM	–	> 10 µM	> 10 µM	–	–	–	–	–
COc1cc2c(cc1C)NC(=O)/C2=C\c1cc(OC)c(OC)c(OC)c1	29.6 µM	> 100 µM	15.8 µM	59.2 µM	> 100 µM	> 100 µM	–	–	–	–	–	–
CCN(CC)CCNc1c(OC)cc(C)c2sc3ccccc3c(=O)c12	–	24.2 µM	–	10.1 µM	–	39.9 µM	–	–	–	–	–	–
COc1cc([C@H](C)c2ccc3ccccc3c2)cc(OC)c1OC	0.848 µM	18.4 µM	0.877 µM	70.9 µM	0.626 µM	> 100 µM	–	–	–	–	–	–
COc1cc(-c2cnn(C)c2)ccc1Nc1ncc2ccnc(N[C@@H](C)C(C)(C)C)c2n1	> 68.5 µM	> 100 µM	13.4 µM	> 100 µM	> 100 µM	> 100 µM	–	–	–	–	–	–
C=CCn1c(C)nc2cc(Nc3nc(Nc4ccc5nc(C)n(CC=C)c5c4)c4ccccc4n3)ccc21	–	–	–	–	0.28 µM	0.909 µM	–	–	–	–	–	–
COc1cc(/C=C/c2cc(C(F)(F)F)[nH]c(=O)n2)ccc1OCc1ccccc1F	5.04 µM	20.6 µM	13.1 µM	53 µM	9.98 µM	63.1 µM	–	–	–	–	–	–
Cc1cc2nc3c(C(OC4OC(CO)C(O)C(O)C4O)C(O)CO)nn(-c4ccccc4)c3nc2cc1C (stereo unspecified)	–	–	–	–	–	–	–	–	–	–	> 100 µM	> 100 µM

SMILES	GI50 (BT-549 breast)	TGI (BT-549 breast)	GI50 (MDA-MB-231 breast)	TGI (MDA-MB-231 breast)	GI50 (T-47D breast)	TGI (T-47D breast)	TGI (MDA-N)	GI50 (MDA-N)	TGI (DMS 273 small cell lung)	TGI (M19-MEL melanoma)	TGI (XF 498 CNS)	TGI (SNB-78 CNS)
CN1CCN(Cc2ccc(NC(=O)c3cncc(C#Cc4cnc(N)c5ccc(F)cc45)c3)cc2C(F)(F)F)CC1	4.38 µM	8.86 µM	0.936 µM	3.66 µM	4.53 µM	11.4 µM	–	–	–	–	–	–
Nc1nc(-c2cccc([N+](=O)[O-])c2)c(Br)c(=O)[nH]1	–	> 63 µM	–	> 100 µM	–	> 100 µM	–	–	–	–	–	–
CCCCCCNC(=O)C1=C(C)NC(C)=C(C(=O)NCCCCCC)C1	–	> 100 µM	–	> 100 µM	–	> 100 µM	> 100 µM	–	–	–	–	–
O=[N+]([O-])c1ccc2[nH]cc(-c3c4ccsc4cc4[nH]c5ccc([N+](=O)[O-])cc5c34)c2c1	1.49 µM	6.36 µM	1.2 µM	5.75 µM	0.864 µM	4.46 µM	–	–	–	–	–	–
Cc1c(CCCl)c(=O)n2c([nH]c3ccccc32)c1C#N	–	3.63 µM	–	3.09 µM	–	2.97 µM	3.33 µM	–	–	–	–	–
CC(=O)Oc1cc(C)ccc1[C@]1(C)CC[C@H](C)/C1=C\Br	4.1 µM	17.6 µM	9.04 µM	23.9 µM	5.38 µM	23.4 µM	7.16 µM	2.36 µM	–	–	–	–
O=C(Nc1ccccc1C(F)(F)F)c1cccc(NC2=C(Cl)C(=O)N(Cc3ccccc3)C2=O)c1	8.25 µM	45.1 µM	3.86 µM	21.4 µM	62.7 µM	> 100 µM	–	–	–	–	–	–
Cc1ccc(C(=O)c2oc3ccc4c(C)cc(=O)oc4c3c2C)cc1	45.6 µM	> 100 µM	11.1 µM	> 100 µM	50.1 µM	> 100 µM	–	–	–	–	–	–
COc1ccc2c(c1)C(=O)CC(N)C2 (stereo unspecified)	–	> 100 µM	–	> 100 µM	–	> 100 µM	> 100 µM	–	–	–	–	–
CN1CC(c2ccccc2)N(CCCCN2CC(c3ccccc3)N(C)CC2c2ccccc2)CC1c1ccccc1 (stereo unspecified)	–	> 100 µM	–	> 100 µM	–	–	> 100 µM	–	–	–	–	–
COC1=CC23C=CC1[C@@H](c1ccccc1)C2=C(C)C(=O)N3C(=O)NC1CCCCC1 (stereo partly specified)	–	–	–	–	–	–	–	–	–	–	–	70.1 µM
COc1cc2nc(-c3ccc(C(F)(F)F)cc3)cc(OCCCN3CCOCC3)c2cc1OC	5 µM	20.9 µM	0.498 µM	4.51 µM	0.654 µM	23.8 µM	–	–	–	–	–	–
C=CCNC(=S)N1CC(C)C(=O)Nc2ccccc21 (stereo unspecified)	–	–	–	–	–	–	–	–	> 100 µM	–	> 100 µM	> 100 µM
O=c1cc(-c2ccccc2)[nH]c2cccc(S)c12	–	> 100 µM	–	–	–	> 100 µM	–	–	–	–	–	–
O=C1c2cc(Br)ccc2-c2c1c1ccc([N+](=O)[O-])cc1c(=O)n2CCCCl	2.98 µM	> 63.8 µM	12.9 µM	> 96.1 µM	0.0144 µM	18.8 µM	–	–	–	–	–	–
CC(=O)NC1=N/C(=C/c2cc([N+](=O)[O-])ccc2O)CN1C	–	> 100 µM	–	> 100 µM	–	> 100 µM	> 100 µM	–	–	–	–	–
CCOC(=O)CCC(=O)C1c2cccc(O)c2C(=O)c2c(O)cccc21	–	–	–	–	–	–	–	–	2.73 µM	2.29 µM	0.551 µM	–
O=c1cc(-c2ccccc2)[nH]c2cc(Cl)cc(Cl)c12	–	–	–	–	–	–	–	–	> 100 µM	> 100 µM	–	–
CCOC(=O)[C@@H](C)C[C@H](Cc1ccccc1)NC(=O)c1csc([C@@H](C[C@H](C(C)C)N(C)C(=O)[C@@H](NC(=O)[C@H]2C[C@H](O[Si](C)(C)C(C)(C)C)CCN2C)C(C)C)OC(C)=O)n1	0.285 µM	2.53 µM	0.329 µM	1.89 µM	0.297 µM	> 8.33 µM	–	–	–	–	–	–
Oc1ccc(N=Nc2ccc(Cl)cc2)cc1	–	32.6 µM	–	24.3 µM	–	67.4 µM	30.6 µM	–	–	–	–	–
COc1cc2c(cc1OCc1ccccc1)N=C[C@@H]1C/C(=C/C(=O)NCCCN3C(=O)c4cccc5cccc(c45)C3=O)CN1C2=O	0.273 µM	1.08 µM	0.708 µM	6.14 µM	0.137 µM	3.06 µM	–	–	–	–	–	–
S=C(Nc1ccc(-c2nc3ccccc3[nH]2)cc1)NC1CCCCC1	21.7 µM	60.3 µM	18.1 µM	43.1 µM	27 µM	–	–	–	–	–	–	–
COc1cc(OC2OC(C)C(O)C(O)C2O)cc2oc(-c3ccc(O)cc3)c(CC=C(C)C)c(=O)c12 (stereo unspecified)	31.2 µM	> 100 µM	6.38 µM	21.4 µM	8.74 µM	30.8 µM	–	–	–	–	–	–
C=CC(=O)N1CCCC(n2nc(-c3ccc(Oc4ccccc4)cc3)c3c(N)ncnc32)C1 (stereo unspecified)	5.85 µM	18.5 µM	8.42 µM	23.6 µM	2.14 µM	18.6 µM	–	–	–	–	–	–

Source: PubChem BioAssay (NCI)
